Like-named read-outs stand apart in the source and are kept apart here.
Key:
Pseudomonas aeruginosa = assay: MIC measurement in agar medium (dilution test), Pyo; type: cell-based; conditions: potentiator alone
From the text: (§1) Inhibitory minimum concentration measurement tests are made in a solid agar medium according to international standards in force (CLSI M7-A9 Jan 12 standards): dispersion of the compounds to be tested in a Mueller Hinton gelose. An adaptation relating to the hydrophobicity of compounds and compositions is however necessary to disperse them in the medium: dilution of the compounds in a solvent. The compounds and compositions incorporated in the agar medium can be diluted beforehand in one or more solvents (Tween® 80 diluted with water, Tween® 80 diluted with […], DMSO diluted with water). The strains are deposited onto the agar surface with a steers apparatus. In the examples, different dissolution methods for products are tested in parallel to circumvent the problems of water/solvent distribution coefficient of the molecules (antimicrobial and potentiator) whereas the bacteria grow only in the aqueous phase. The technical requirement will not intervene in in vivo tests. The same dilution methods can be implemented in a liquid medium (microplates and tubes). The same methodology is implemented with fungi. […] MIC measurement: the minimum inhibitory concentration measurement tests are made in an agar solid medium according to international standards in force (CLSI standards), according to the previously defined protocol. […] The booster contribution as compared with the MIC of the antibiotic alone is expressed in a (MIC ATB)/(MIC ATB+booster) ratio. Thereby, gains are defined: […]

candidas = assay: MIC measurement (dilution test) on yeast strains; type: cell-based, Candida; set-up: key to MIC 90 gain / MIC 50 gain: gain = MIC of antifungal alone / MIC of antifungal + booster; conditions: Sertaconazole with booster, solvent DMSO
From the text: Inhibitory minimum concentration measurement tests are made in a solid agar medium according to international standards in force (CLSI M7-A9 Jan 12 standards): dispersion of the compounds to be tested in a Mueller Hinton gelose. An adaptation relating to the hydrophobicity of compounds and compositions is however necessary to disperse them in the medium: dilution of the compounds in a solvent. The compounds and compositions incorporated in the agar medium can be diluted beforehand in one or more solvents (Tween® 80 diluted with water, Tween® 80 diluted with […], DMSO diluted with water). The strains are deposited onto the agar surface with a steers apparatus. In the examples, different dissolution methods for products are tested in parallel to circumvent the problems of water/solvent distribution coefficient of the molecules (antimicrobial and potentiator) whereas the bacteria grow only in the aqueous phase. The technical requirement will not intervene in in vivo tests. The same dilution methods can be implemented in a liquid medium (microplates and tubes). The same methodology is implemented with fungi. […] MIC measurement: the minimum inhibitory concentration measurement tests are made in an agar solid medium according to international standards in force (CLSI standards), according to the previously defined protocol. […] The booster contribution as compared with the MIC of the antibiotic alone is expressed in a (MIC ATB)/(MIC ATB+booster) ratio. Thereby, gains are defined: […] The yeast strains tested (n=33) belong to the […] albicans, Candida tropicalis, Candida krusei, Candida parapsilosis, Candida glabrata species.

Pseudomonas Strain 08131 = assay: Etest, Pseudomonas Strain 08131; type: cell-based; conditions: for MIC: Pseudomonas, STRAIN08131, Strain 08131, read-out: MIC of Pipera tazo; for MIC of Meropenem: Strain 08131
From the text: (§2) The corresponding tests are made based on the usual MIC test: the Etest® (Biomerieux) strip is deposited onto the surface of a seeded agar medium in which the booster has been incorporated. This test enables solvent effect risks, that is a possible interaction with the solvent used in vitro, to be minimised.
(§3) The control corresponds to the test made without cineol. A control is made in each solvent tested: distilled water, Tween/water and DMSO.
(§4) ED control=antibiotic alone in distilled water
(§5) DMSO control=antibiotic alone in DMSO
(§6) TE control=antibiotic alone in Tween® 80

[1] = test system: bacterial strains (Pyo, Coli, Staph); assay: MIC measurement in agar medium, tested bacterial strains overall; type: cell-based; conditions: compound alone, depending on the strains
From the text: Inhibitory minimum concentration measurement tests are made in a solid agar medium according to international standards in force (CLSI M7-A9 Jan 12 standards): dispersion of the compounds to be tested in a Mueller Hinton gelose. An adaptation relating to the hydrophobicity of compounds and compositions is however necessary to disperse them in the medium: dilution of the compounds in a solvent. The compounds and compositions incorporated in the agar medium can be diluted beforehand in one or more solvents (Tween® 80 diluted with water, Tween® 80 diluted with […], DMSO diluted with water). The strains are deposited onto the agar surface with a steers apparatus. In the examples, different dissolution methods for products are tested in parallel to circumvent the problems of water/solvent distribution coefficient of the molecules (antimicrobial and potentiator) whereas the bacteria grow only in the aqueous phase. The technical requirement will not intervene in in vivo tests. The same dilution methods can be implemented in a liquid medium (microplates and tubes). The same methodology is implemented with fungi. MIC measurement: the minimum inhibitory concentration measurement tests are made in an agar solid medium according to international standards in force (CLSI standards), according to the previously defined protocol. […] [table]

E. Coli Strain 08138 = assay: Etest, E. Coli Strain 08138; type: cell-based; conditions: for MIC: Escherichia coli, read-out: MIC of Pipera tazo, Strain 08138; for MIC of Cefoxitine / MIC of Tigecycline: Strain 08138
From the text: as §2, §3, §4, §5, §6

Escherichia coli = assay: MIC measurement in agar medium (dilution test), Coli; type: cell-based; conditions: potentiator alone
From the text: as §1

[2] = booster 1 mg/L in agar, Tween/water
[3] = booster 4 mg/L in agar, Tween/water
[4] = booster 16 mg/L in agar, Tween/water

O=C(OCc1ccccc1)c1ccccc1 [BB, benzyl benzoate]
MIC 50 (Pseudomonas aeruginosa; solvent DMSO): 1.00%
MIC 90 (Pseudomonas aeruginosa; solvent DMSO): 1.00%
MIC 50 (Pseudomonas aeruginosa; solvent Tween/prop glyc): >1%
MIC 90 (Pseudomonas aeruginosa; solvent Tween/prop glyc): >1%
MIC 50 (Pseudomonas aeruginosa; solvent Tween/water): >1%
MIC 90 (Pseudomonas aeruginosa; solvent Tween/water): >1%
MIC 50 (Pseudomonas aeruginosa; solvent water/water): >1%
MIC 90 (Pseudomonas aeruginosa; solvent water/water): >1%
MIC 50 gain (candidas; ratio 64/100): 0.13
MIC 90 gain (candidas; ratio 64/100): 0.50
MIC 50 gain (candidas; ratio 64/500): 1.00
MIC 90 gain (candidas; ratio 64/500): 1.00
MIC (Pseudomonas Strain 08131; booster 1 mg/L in agar, DMSO): 6 µg/mL
MIC (Pseudomonas Strain 08131; [2]): 8 µg/mL
MIC (Pseudomonas Strain 08131; booster 4 mg/L in agar, DMSO): 8 µg/mL
MIC (Pseudomonas Strain 08131; [3]): 6 µg/mL
MIC (Pseudomonas Strain 08131; booster 16 mg/L in agar, DMSO): 6 µg/mL
MIC (Pseudomonas Strain 08131; [4]): 4 µg/mL
MIC of Meropenem (Pseudomonas Strain 08131; booster 1 mg/L in agar, DMSO): 1.5 mg/L
MIC of Meropenem (Pseudomonas Strain 08131; [2]): 3 mg/L
MIC of Meropenem (Pseudomonas Strain 08131; booster 4 mg/L in agar, DMSO): 2 mg/L
MIC of Meropenem (Pseudomonas Strain 08131; [3]): 3 mg/L
MIC of Meropenem (Pseudomonas Strain 08131; booster 16 mg/L in agar, DMSO): 2 mg/L
MIC of Meropenem (Pseudomonas Strain 08131; [4]): 1 mg/L
MIC [1]: > 10000 µg/mL
MIC (E. Coli Strain 08138; booster 1 mg/L in agar, DMSO): 3 µg/mL
MIC (E. Coli Strain 08138; [2]): 6 µg/mL
MIC (E. Coli Strain 08138; booster 4 mg/L in agar, DMSO): 6 µg/mL
MIC (E. Coli Strain 08138; [3]): 4 µg/mL
MIC (E. Coli Strain 08138; booster 16 mg/L in agar, DMSO): 6 µg/mL
MIC (E. Coli Strain 08138; [4]): 4 µg/mL
MIC of Cefoxitine (E. Coli Strain 08138; booster 1 mg/L in agar, DMSO): 2 mg/L
MIC of Cefoxitine (E. Coli Strain 08138; [2]): 2 mg/L
MIC of Cefoxitine (E. Coli Strain 08138; booster 4 mg/L in agar, DMSO): 3 mg/L
MIC of Cefoxitine (E. Coli Strain 08138; [3]): 2 mg/L
MIC of Cefoxitine (E. Coli Strain 08138; booster 16 mg/L in agar, DMSO): 2 mg/L
MIC of Cefoxitine (E. Coli Strain 08138; [4]): 3 mg/L
MIC 50 (Escherichia coli; solvent DMSO): >1%
MIC 90 (Escherichia coli; solvent DMSO): >1%
MIC 50 (Escherichia coli; solvent Tween/prop glyc): >1%
MIC 90 (Escherichia coli; solvent Tween/prop glyc): >1%
MIC 50 (Escherichia coli; solvent Tween/water): >1%
MIC 90 (Escherichia coli; solvent Tween/water): >1%
MIC 50 (Escherichia coli; solvent water/water): >1%
MIC 90 (Escherichia coli; solvent water/water): >1%

CC(=O)OCC=Cc1ccccc1 [AC, cinnamyl acetate]
MIC 50 (Pseudomonas aeruginosa; solvent DMSO): 1.00%
MIC 90 (Pseudomonas aeruginosa; solvent DMSO): 1.00%
MIC 50 (Pseudomonas aeruginosa; solvent Tween/prop glyc): >1%
MIC 90 (Pseudomonas aeruginosa; solvent Tween/prop glyc): >1%
MIC 50 (Pseudomonas aeruginosa; solvent Tween/water): >1%
MIC 90 (Pseudomonas aeruginosa; solvent Tween/water): >1%
MIC 50 (Pseudomonas aeruginosa; solvent water/water): >1%
MIC 90 (Pseudomonas aeruginosa; solvent water/water): >1%
MIC 50 gain (candidas; ratio 64/100): 0.05
MIC 90 gain (candidas; ratio 64/100): 0.28
MIC 50 gain (candidas; ratio 64/500): 2.00
MIC 90 gain (candidas; ratio 64/500): 1.00
MIC (Pseudomonas Strain 08131; booster 1 mg/L in agar, DMSO): 6 µg/mL
MIC (Pseudomonas Strain 08131; [2]): 6 µg/mL
MIC (Pseudomonas Strain 08131; booster 4 mg/L in agar, DMSO): 3 µg/mL
MIC (Pseudomonas Strain 08131; [3]): 3 µg/mL
MIC (Pseudomonas Strain 08131; booster 16 mg/L in agar, DMSO): 3 µg/mL
MIC (Pseudomonas Strain 08131; [4]): 3 µg/mL
MIC of Meropenem (Pseudomonas Strain 08131; booster 1 mg/L in agar, DMSO): 1.5 mg/L
MIC of Meropenem (Pseudomonas Strain 08131; [2]): 2 mg/L
MIC of Meropenem (Pseudomonas Strain 08131; booster 4 mg/L in agar, DMSO): 0.75 mg/L
MIC of Meropenem (Pseudomonas Strain 08131; [3]): 0.5 mg/L
MIC of Meropenem (Pseudomonas Strain 08131; booster 16 mg/L in agar, DMSO): 0.75 mg/L
MIC of Meropenem (Pseudomonas Strain 08131; [4]): 0.38 mg/L
MIC [1]: > 10000 µg/mL
MIC (E. Coli Strain 08138; booster 1 mg/L in agar, DMSO): 6 µg/mL
MIC (E. Coli Strain 08138; [2]): 2 µg/mL
MIC (E. Coli Strain 08138; booster 4 mg/L in agar, DMSO): 4 µg/mL
MIC (E. Coli Strain 08138; [3]): 2 µg/mL
MIC (E. Coli Strain 08138; booster 16 mg/L in agar, DMSO): 8 µg/mL
MIC (E. Coli Strain 08138; [4]): 2 µg/mL
MIC of Cefoxitine (E. Coli Strain 08138; booster 1 mg/L in agar, DMSO): 2 mg/L
MIC of Tigecycline (E. Coli Strain 08138; booster 1 mg/L in agar, DMSO): 0.38 mg/L
MIC of Cefoxitine (E. Coli Strain 08138; [2]): 2 mg/L
MIC of Tigecycline (E. Coli Strain 08138; [2]): 0.25 mg/L
MIC of Cefoxitine (E. Coli Strain 08138; booster 4 mg/L in agar, DMSO): 1.5 mg/L
MIC of Tigecycline (E. Coli Strain 08138; booster 4 mg/L in agar, DMSO): 0.38 mg/L
MIC of Cefoxitine (E. Coli Strain 08138; [3]): 1.5 mg/L
MIC of Tigecycline (E. Coli Strain 08138; [3]): 0.19 mg/L
MIC of Cefoxitine (E. Coli Strain 08138; booster 16 mg/L in agar, DMSO): 0.5 mg/L
MIC of Tigecycline (E. Coli Strain 08138; booster 16 mg/L in agar, DMSO): 0.125 mg/L
MIC of Cefoxitine (E. Coli Strain 08138; [4]): 4 mg/L
MIC of Tigecycline (E. Coli Strain 08138; [4]): 0.19 mg/L
MIC 50 (Escherichia coli; solvent DMSO): 1.00%
MIC 90 (Escherichia coli; solvent DMSO): 1.00%
MIC 50 (Escherichia coli; solvent Tween/prop glyc): >1%
MIC 90 (Escherichia coli; solvent Tween/prop glyc): >1%
MIC 50 (Escherichia coli; solvent Tween/water): >1%
MIC 90 (Escherichia coli; solvent Tween/water): >1%
MIC 50 (Escherichia coli; solvent water/water): >1%
MIC 90 (Escherichia coli; solvent water/water): >1%
